Test results: US20180200257A1, “METHODS FOR THE TREATMENT OF INFLAMMATORY DISORDERS” (Galapagos NV, priority 2015, published 2018)

System: subjects with moderately to severely active RA who have an inadequate response to methotrexate (MTX)
Test: Study 2 (monotherapy) - ACR responses (ACR20/50/70)
Assay type: in vivo, human
From the text: The terms “ACR20”, “ACR50” and “ACR70” as used herein are scores which indicate how much a patient's rheumatoid arthritis has improved according to criteria set out by the American College of Rheumatology (ACR). The ACR score represents a percentage. An ACR20 score means that a person's RA has improved by 20%, an ACR50 score means it has improved by 50%, and an ACR70 score means it has improved by 70%. Specifically, to qualify for an ACR20 score, a person with RA must have at least 20% fewer tender joints and at least 20% fewer swollen joints. In addition the patient must show a 20% improvement in at least three of the following five areas: the person's overall (global) assessment of his or her own RA, the physician's global assessment of the person's RA, the person's assessment of his or her own pain, the person's assessment of his or her own physical functioning, and the results of an erythrocyte sedimentation rate or C-reactive protein (CRP) blood test (both of which test for inflammation). ACR50 and ACR70 scores use the same criteria but require 50% and 70% improvement, respectively, (Felson et al., 1993). In the data presented herein the CRP blood test is used.
Randomized, double-blind, placebo-controlled, multicenter, phase IIb dose finding study of Compound 1 (dosed as a [Compound 1:HCl:3H2O]) administered for 24 weeks as monotherapy to subjects with moderately to severely active rheumatoid arthritis who have an inadequate response to methotrexate alone
Double-blind, placebo-controlled, monotherapy study in subjects with moderately to severely active RA who have an inadequate response to methotrexate (MTX) (oral or parenteral).
280 subjects randomized to one of 3 doses of Compound 1 (dosed as a [Compound 1:HCl:3H2O]) or to placebo, given once daily (q.d.).
Twelve weeks of treatment with Compound 1 (dosed as a [Compound 1:HCl:3H2O]) at 50 mg, 100 mg, or 200 mg q.d.; or placebo. At Week 12, all subjects on placebo and the subjects on the 50 mg dose who have not achieved 20% improvement in swollen joint count (SJC66) and tender joint count (TJC68) will be assigned to 100 mg q.d. in a blinded fashion and will continue treatment until Week 24. Subjects in the other groups will maintain their randomized treatment until Week 24.
The American College of Rheumatology (ACR) composite score, which evaluates clinical improvement relative to an initial assessment, is a commonly accepted efficacy end point for clinical trials in patients with rheumatoid arthritis. The ACR score correspond to a percentage improvement in pre-set parameters, and therefore measures the evolution of the disease in a patient. For example, ACR20 denotes at least 20% improvement in tender and swollen joint counts and in three of the following end points: global assessment by the patient, global assessment by the doctor, C reactive protein (CRP), patient's pain Visual Analogue Scale and Health Assessment Questionnaire Score. The number of swollen joints, ESR and CRP correlate with radiographic progression of joint damage, whereas tender joint counts, as well as global assessments by doctors and patients, and patients' reports of pain, are sensitive to change in clinical outcomes. Physical function, as assessed by the Health Assessment Questionnaire Score, is a potent predictor of the risk of disability in rheumatoid arthritis (Felson and American College of Rheumatology Committee to Reevaluate Improvement Criteria, 2007; Felson et al., 1993).
In particular, the list of parameters used to assess ACR score can be found in the Table XCVI below and the results of the ACR responses at week 12 via either NRI or LOCF are shown in the tables below. The Hommel-corrected p-value for the pairwise comparisons of each group with placebo is shown. […]

[1] = 50 mg q.d., week 1, 12 weeks results
[2] = 50 mg q.d., week 1, 24 weeks results
[3] = 50 mg q.d., week 2, 12 weeks results
[4] = 50 mg q.d., week 2, 24 weeks results
[5] = 50 mg q.d., week 4, 12 weeks results
[6] = 50 mg q.d., week 4, 24 weeks results
[7] = 50 mg q.d., week 12, 12 weeks results
[8] = 50 mg q.d., week 12, 24 weeks results
[9] = 50 mg q.d., week 16, 24 weeks results
[10] = 50 mg q.d., week 20, 24 weeks results
[11] = 50 mg q.d., week 24, 24 weeks results
[12] = 50 mg q.d., week 8, 12 weeks results
[13] = 50 mg q.d., week 8, 24 weeks results
[14] = 100 mg q.d., week 1, 12 weeks results
[15] = 100 mg q.d., week 1, 24 weeks results
[16] = 100 mg q.d., week 2, 12 weeks results
[17] = 100 mg q.d., week 2, 24 weeks results
[18] = 100 mg q.d., week 4, 12 weeks results
[19] = 100 mg q.d., week 4, 24 weeks results
[20] = 100 mg q.d., week 8, 24 weeks results
[21] = 100 mg q.d., week 12, 12 weeks results
[22] = 100 mg q.d., week 12, 24 weeks results
[23] = 100 mg q.d., week 16, 24 weeks results
[24] = 100 mg q.d., week 20, 24 weeks results
[25] = 100 mg q.d., week 24, 24 weeks results
[26] = 100 mg q.d., week 8, 12 weeks results
[27] = 200 mg q.d., week 1, 12 weeks results
[28] = 200 mg q.d., week 1, 24 weeks results
[29] = 200 mg q.d., week 2, 12 weeks results
[30] = 200 mg q.d., week 2, 24 weeks results
[31] = 200 mg q.d., week 4, 12 weeks results
[32] = 200 mg q.d., week 4, 24 weeks results
[33] = 200 mg q.d., week 8, 24 weeks results
[34] = 200 mg q.d., week 12, 12 weeks results
[35] = 200 mg q.d., week 12, 24 weeks results
[36] = 200 mg q.d., week 16, 24 weeks results
[37] = 200 mg q.d., week 20, 24 weeks results
[38] = 200 mg q.d., week 24, 24 weeks results
[39] = 200 mg q.d., week 8, 12 weeks results

## O=C(Nc1nc2cccc(-c3ccc(CN4CCS(=O)(=O)CC4)cc3)n2n1)C1CC1 [Compound 1, cyclopropanecarboxylic acid {5-[4-(1,1-dioxo-thiomorpholin-4-ylmethyl)-phenyl]-[1,2,4]triazolo[1,5-a]pyridin-2-yl}-amide]
[1]
  ACR20 (LOCF): 20.8
  ACR20 (NRI): 22.2%
  ACR50 (LOCF): 1.4%
  ACR50 (NRI): 1.4%
  ACR70 (LOCF): 0.0%
  ACR70 (NRI): 0.0%
[2]
  ACR20 (LOCF): 22.2
  ACR20 (NRI): 22.2%
  ACR50 (LOCF): 1.4%
  ACR50 (NRI): 1.4%
  ACR70 (LOCF): 0.0%
  ACR70 (NRI): 0.0%
[3]
  ACR20 (LOCF): 33.3%
  ACR20 (NRI): 34.7%
  ACR50 (LOCF): 5.6%
  ACR50 (NRI): 5.6%
  ACR70 (LOCF): 1.4%
  ACR70 (NRI): 1.4%
[4]
  ACR20 (LOCF): 33.3%
  ACR20 (NRI): 33.3%
  ACR50 (LOCF): 5.6%
  ACR50 (NRI): 5.6%
  ACR70 (LOCF): 1.4%
  ACR70 (NRI): 1.4%
[5]
  ACR20 (LOCF): 54.2%
  ACR20 (NRI): 54.2%
  ACR50 (LOCF): 13.9%
  ACR50 (NRI): 15.3%
  ACR70 (LOCF): 8.3%
  ACR70 (NRI): 8.3%
[6]
  ACR20 (LOCF): 52.8%
  ACR20 (NRI): 52.8%
  ACR50 (LOCF): 15.3%
  ACR50 (NRI): 15.3%
  ACR70 (LOCF): 8.3%
  ACR70 (NRI): 8.3%
[7]
  ACR50 (NRI): 36.1%%
  ACR70 (NRI): 8.3%%
[8]
  ACR50 (NRI): 34.7%
  ACR70 (NRI): 8.3%
[9]
  ACR50 (NRI): 33.3%
  ACR70 (NRI): 15.3%
[10]
  ACR50 (NRI): 27.8%
  ACR70 (NRI): 12.5%
[11]
  ACR50 (NRI): 31.9%
  ACR70 (NRI): 19.4%
[12]
  ACR20 (LOCF): 62.5%
  ACR20 (NRI): 61.1%
  ACR50 (LOCF): 16.7%
  ACR50 (NRI): 16.7%
  ACR70 (LOCF): 6.9%
  ACR70 (NRI): 6.9%
[13]
  ACR20 (LOCF): 61.1%
  ACR20 (NRI): 61.1%
  ACR50 (LOCF): 16.7%
  ACR50 (NRI): 16.7%
  ACR70 (LOCF): 6.9%
  ACR70 (NRI): 6.9%
[14]
  ACR20 (LOCF): 24.3%
  ACR20 (NRI): 24.3%
  ACR50 (LOCF): 10.0%
  ACR50 (NRI): 10.0%
  ACR70 (LOCF): 1.4%
  ACR70 (NRI): 1.4%
[15]
  ACR20 (LOCF): 24.3%
  ACR20 (NRI): 24.3%
  ACR50 (LOCF): 10.0%
  ACR50 (NRI): 10.0%
  ACR70 (LOCF): 1.4%
  ACR70 (NRI): 1.4%
[16]
  ACR20 (LOCF): 34.3%
  ACR20 (NRI): 32.9%
  ACR50 (LOCF): 8.6%
  ACR50 (NRI): 7.1%
  ACR70 (LOCF): 1.4%
  ACR70 (NRI): 1.4%
[17]
  ACR20 (LOCF): 35.7%
  ACR20 (NRI): 32.9%
  ACR50 (LOCF): 8.6%
  ACR50 (NRI): 7.1%
  ACR70 (LOCF): 1.4%
  ACR70 (NRI): 1.4%
[18]
  ACR20 (LOCF): 44.3%
  ACR20 (NRI): 44.3%
  ACR50 (LOCF): 18.6%
  ACR50 (NRI): 18.6%
  ACR70 (LOCF): 5.7%
  ACR70 (NRI): 5.7%
[19]
  ACR20 (LOCF): 44.3%
  ACR20 (NRI): 44.3%
  ACR50 (LOCF): 18.6%
  ACR50 (NRI): 18.6%
  ACR70 (LOCF): 5.7%
  ACR70 (NRI): 5.7%
[20]
  ACR50 (NRI): 25.7%
  ACR70 (NRI): 11.4%
[21]
  ACR50 (NRI): 34.3%%
  ACR70 (NRI): 18.6%%
[22]
  ACR50 (NRI): 35.7%
  ACR70 (NRI): 18.6%
[23]
  ACR50 (NRI): 38.6%
  ACR70 (NRI): 17.1%
[24]
  ACR50 (NRI): 41.4%
  ACR70 (NRI): 24.3%
[25]
  ACR50 (NRI): 40.0%
  ACR70 (NRI): 25.7%
[26]
  ACR20 (LOCF): 60.0%
  ACR20 (NRI): 61.4%
  ACR50 (LOCF): 25.7%
  ACR50 (NRI): 25.7%
  ACR70 (LOCF): 11.4%
  ACR70 (NRI): 11.4%
[27]
  ACR20 (LOCF): 39.1%
  ACR20 (NRI): 39.1%
  ACR50 (LOCF): 7.2%
  ACR50 (NRI): 7.2%
  ACR70 (LOCF): 1.4%
  ACR70 (NRI): 1.4%
[28]
  ACR20 (LOCF): 39.1%
  ACR20 (NRI): 39.1%
  ACR50 (LOCF): 7.2%
  ACR50 (NRI): 7.2%
  ACR70 (LOCF): 1.4%
  ACR70 (NRI): 1.4%
[29]
  ACR20 (LOCF): 53.6%
  ACR20 (NRI): 56.5%
  ACR50 (LOCF): 21.7%
  ACR50 (NRI): 21.7%
  ACR70 (LOCF): 4.3%
  ACR70 (NRI): 4.3%
[30]
  ACR20 (LOCF): 56.5%
  ACR20 (NRI): 56.5%
  ACR50 (LOCF): 21.7%
  ACR50 (NRI): 21.7%
  ACR70 (LOCF): 4.3%
  ACR70 (NRI): 4.3%
[31]
  ACR20 (LOCF): 62.3%
  ACR20 (NRI): 63.8%
  ACR50 (LOCF): 23.2%
  ACR50 (NRI): 23.2%
  ACR70 (LOCF): 11.6%
  ACR70 (NRI): 11.6%
[32]
  ACR20 (LOCF): 63.8%
  ACR20 (NRI): 62.3%
  ACR50 (LOCF): 23.2%
  ACR50 (NRI): 23.2%
  ACR70 (LOCF): 11.6%
  ACR70 (NRI): 11.6%
[33]
  ACR50 (NRI): 33.3%
  ACR70 (NRI): 17.4%
[34]
  ACR50 (NRI): 43.5%%
  ACR70 (NRI): 13.0%%
[35]
  ACR50 (NRI): 43.5%
  ACR70 (NRI): 13.0%
[36]
  ACR50 (NRI): 40.6%
  ACR70 (NRI): 18.8%
[37]
  ACR50 (NRI): 44.9%
  ACR70 (NRI): 24.6%
[38]
  ACR50 (NRI): 44.9%
  ACR70 (NRI): 24.6%
[39]
  ACR20 (LOCF): 72.5%
  ACR20 (NRI): 73.9%
  ACR50 (LOCF): 33.3%
  ACR50 (NRI): 33.3%
  ACR70 (LOCF): 17.4%
  ACR70 (NRI): 17.4%
